Assay results: patent US9738634B2, “Heterocyclic amide compound and herbicide” (SYNGENTA PARTICIPATIONS AG, priority 2013, dated 2017)

What was measured:
Format in all cases: in vivo
Indian mallow [1] = assay: Test Example 3: weedkilling efficacy through soil treatment; K: Indian mallow; conditions: treatment dosage 315 g/ha
Procedure, shortened: (§1)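 Crop and weed responses were judged three weeks after a uniform surface spray of the water-diluted emulsion at the given g/ha rate. Seeds sat beneath about 1.5 cm of sterilized diluvial soil, and boxes stood in a greenhouse at 25 to 30° C.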

corn [2] = assay: Test Example 3: soil treatment, effect on crop; c: corn; conditions: treatment dosage 315 g/ha
Procedure, shortened: as §1

chickweed [3] = assay: Test Example 3: weedkilling efficacy through soil treatment; N: chickweed; conditions: treatment dosage 315 g/ha
Procedure, shortened: as §1

chickweed [4] = assay: Test Example 4: weedkilling efficacy by foliar treatment; N: chickweed; conditions: treatment dosage 315 g/ha
Procedure, shortened: (§2)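 Seeds are spot-sown into sterilized diluvial soil and covered with about 1.5 cm of soil. After 14 days' greenhouse growth at 25 to 30° C, plants are sprayed on stems and leaves with diluted emulsion at the stated g/ha rate, then scored at 3 weeks.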

wild oat [5] = assay: Test Example 3: weedkilling efficacy through soil treatment; G: wild oat; conditions: treatment dosage 315 g/ha
Procedure, shortened: as §1

catchweed [6] = assay: Test Example 4: weedkilling efficacy by foliar treatment; O: catchweed; conditions: treatment dosage 315 g/ha
Procedure, shortened: as §2

bulrush [7] = assay: Test Example 1: weedkilling efficacy, preemergent weed treatment in the submerged state; B: bulrush; conditions: treatment dosage 252 g/ha
Procedure, shortened: (§3)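 Pre-emergence application onto floodwater (4 cm, alluvial soil) on the day of sowing, dose expressed as g/ha from diluted emulsion formulation. Weeds sown with 2.5-leaf transplanted rice as crop; plants held at 25–30 °C in greenhouse and scored against assessment criteria after 3 weeks.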

barnyard grass [8] = assay: Test Example 2: weedkilling efficacy, growth period weed treatment in the submerged state; A: barnyard grass; conditions: treatment dosage 252 g/ha
Procedure, shortened: (§4)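 Weeds treated at the 1-2 leaf stage by application of diluted emulsion onto floodwater (4 cm depth, alluvial soil) at specified g/ha. Grown in greenhouse at 25 to 30° C; herbicidal effect rated three weeks after treatment.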

wheat [9] = assay: Test Example 3: soil treatment, effect on crop; e: wheat; conditions: treatment dosage 315 g/ha
Procedure, shortened: as §1

bulrush [10] = assay: Test Example 2: weedkilling efficacy, growth period weed treatment in the submerged state; B: bulrush; conditions: treatment dosage 252 g/ha
Procedure, shortened: as §4

Indian mallow [11] = assay: Test Example 4: weedkilling efficacy by foliar treatment; K: Indian mallow; conditions: treatment dosage 315 g/ha
Procedure, shortened: as §2

Italian ryegrass [12] = assay: Test Example 4: weedkilling efficacy by foliar treatment; I: Italian ryegrass; conditions: treatment dosage 315 g/ha
Procedure, shortened: as §2

soybean [13] = assay: Test Example 4: foliar treatment, effect on crop; d: soybean; conditions: treatment dosage 315 g/ha
Procedure, shortened: as §2

oval-leafed pondweed [14] = assay: Test Example 1: weedkilling efficacy, preemergent weed treatment in the submerged state; C: oval-leafed pondweed; conditions: treatment dosage 252 g/ha
Procedure, shortened: as §3

crabgrass [15] = assay: Test Example 4: weedkilling efficacy by foliar treatment; D: crabgrass; conditions: treatment dosage 315 g/ha
Procedure, shortened: as §2

directly sown rice [16] = assay: Test Example 4: foliar treatment, effect on crop; b: directly sown rice; conditions: treatment dosage 315 g/ha
Procedure, shortened: as §2

wild oat [17] = assay: Test Example 4: weedkilling efficacy by foliar treatment; G: wild oat; conditions: treatment dosage 315 g/ha
Description: Testing of Weedkilling Efficacy by Foliar Treatment
Sterilized diluvial soil was introduced into 21 cm long, 13 cm wide, 7 cm deep plastic boxes, and seeds of crabgrass, green foxtail, barnyard grass, wild oat, black-grass, Italian ryegrass, common wind-grass, Indian mallow, redroot pigweed, fig-leafed goosefoot, chickweed, catchweed, birds-eye speedwell, corn, soybean, rice, wheat, beet and rapeseed were each spot-sown, and covered with about 1.5 cm of soil, then the plants were grown in a greenhouse at 25 to 30° C.
After they had grown for 14 days, emulsions of compounds of the present invention prepared according to compounding example 2 were diluted with water to give the specified dosages, and applied uniformly onto the stem and leaf parts with a small sprayer. 3 weeks after the pesticide treatment the effect on each type of plant was investigated on the basis of the assessment criteria of test example 1.
A: barnyard grass, B: bulrush, C: oval-leafed pondweed, D: crabgrass, E: green foxtail, F: barnyard grass, G: wild oat, H: black-grass, I: Italian ryegrass, J: common wind-grass, K: Indian mallow, L: redroot pigweed, M: fig-leafed goosefoot, N: chickweed, O: catchweed, p: birds-eye speedwell, a: transplanted rice, b: directly sown rice, c: corn, d: soybean, e: wheat, f: beet, g: rapeseed
Further, pesticide dosage (g/ha) indicates the concentration regulated such that treatment was with only the stated number of grams (g), when calculated per hectare (ha).

crabgrass [18] = assay: Test Example 3: weedkilling efficacy through soil treatment; D: crabgrass; conditions: treatment dosage 315 g/ha
Procedure, shortened: as §1

beet [19] = assay: Test Example 3: soil treatment, effect on crop; f: beet; conditions: treatment dosage 315 g/ha
Procedure, shortened: as §1

directly sown rice [20] = assay: Test Example 3: soil treatment, effect on crop; b: directly sown rice; conditions: treatment dosage 315 g/ha
Procedure, shortened: as §1

barnyard grass [21] = assay: Test Example 1: weedkilling efficacy, preemergent weed treatment in the submerged state; A: barnyard grass; conditions: treatment dosage 252 g/ha
Procedure, shortened: as §3

black-grass [22] = assay: Test Example 3: weedkilling efficacy through soil treatment; H: black-grass; conditions: treatment dosage 315 g/ha
Procedure, shortened: as §1

fig-leafed goosefoot [23] = assay: Test Example 4: weedkilling efficacy by foliar treatment; M: fig-leafed goosefoot; conditions: treatment dosage 315 g/ha
Procedure, shortened: as §2

redroot pigweed [24] = assay: Test Example 4: weedkilling efficacy by foliar treatment; L: redroot pigweed; conditions: treatment dosage 315 g/ha
Procedure, shortened: as §2

green foxtail [25] = assay: Test Example 3: weedkilling efficacy through soil treatment; E: green foxtail; conditions: treatment dosage 315 g/ha
Procedure, shortened: as §1

soybean [26] = assay: Test Example 3: soil treatment, effect on crop; d: soybean; conditions: treatment dosage 315 g/ha
Procedure, shortened: as §1

oval-leafed pondweed [27] = assay: Test Example 2: weedkilling efficacy, growth period weed treatment in the submerged state; C: oval-leafed pondweed; conditions: treatment dosage 252 g/ha
Procedure, shortened: as §4

wheat [28] = assay: Test Example 4: foliar treatment, effect on crop; e: wheat; conditions: treatment dosage 315 g/ha
Procedure, shortened: as §2

fig-leafed goosefoot [29] = assay: Test Example 3: weedkilling efficacy through soil treatment; M: fig-leafed goosefoot; conditions: treatment dosage 315 g/ha
Procedure, shortened: as §1

green foxtail [30] = assay: Test Example 4: weedkilling efficacy by foliar treatment; E: green foxtail; conditions: treatment dosage 315 g/ha
Procedure, shortened: as §2

beet [31] = assay: Test Example 4: foliar treatment, effect on crop; f: beet; conditions: treatment dosage 315 g/ha
Procedure, shortened: as §2

Italian ryegrass [32] = assay: Test Example 3: weedkilling efficacy through soil treatment; I: Italian ryegrass; conditions: treatment dosage 315 g/ha
Procedure, shortened: as §1

redroot pigweed [33] = assay: Test Example 3: weedkilling efficacy through soil treatment; L: redroot pigweed; conditions: treatment dosage 315 g/ha
Procedure, shortened: as §1

black-grass [34] = assay: Test Example 4: weedkilling efficacy by foliar treatment; H: black-grass; conditions: treatment dosage 315 g/ha
Procedure, shortened: as §2

transplanted rice = assay: Test Example 1: preemergent weed treatment in the submerged state, effect on crop; a: transplanted rice; conditions: treatment dosage 252 g/ha
Procedure, shortened: as §3

birds-eye speedwell = assay: Test Example 3: weedkilling efficacy through soil treatment; p: birds-eye speedwell; conditions: treatment dosage 315 g/ha
Procedure, shortened: as §1

catchweed [35] = assay: Test Example 3: weedkilling efficacy through soil treatment; O: catchweed; conditions: treatment dosage 315 g/ha
Procedure, shortened: as §1

corn [36] = assay: Test Example 4: foliar treatment, effect on crop; c: corn; conditions: treatment dosage 315 g/ha
Procedure, shortened: as §2

CC1=C(c2ccccc2)C(=O)N(C(C)(C)C(=O)Nc2cc(Cl)cc(Br)n2)CO1 [B-2-36]
K (Indian mallow) weedkilling efficacy grade (Indian mallow [1]): 4 (weed kill ratio 70% or more, less than 90%) | c (corn) effect on crop grade (corn [2]): 1 (weed kill ratio 5% or more, less than 20%) | N (chickweed) weedkilling efficacy grade (chickweed [3]): 4 (weed kill ratio 70% or more, less than 90%) | N (chickweed) weedkilling efficacy grade (chickweed [4]): 4 (weed kill ratio 70% or more, less than 90%) | G (wild oat) weedkilling efficacy grade (wild oat [5]): 1 (weed kill ratio 5% or more, less than 20%) | O (catchweed) weedkilling efficacy grade (catchweed [6]): 4 (weed kill ratio 70% or more, less than 90%) | B (bulrush) weedkilling efficacy grade (bulrush [7]): 5 (weed kill ratio 90% or more, (practically complete withering)) | A (barnyard grass) weedkilling efficacy grade (barnyard grass [8]): 5 (weed kill ratio 90% or more, (practically complete withering)) | e (wheat) effect on crop grade (wheat [9]): 0 (weed kill ratio 5% or less (practically no effect)) | B (bulrush) weedkilling efficacy grade (bulrush [10]): 5 (weed kill ratio 90% or more, (practically complete withering)) | K (Indian mallow) weedkilling efficacy grade (Indian mallow [11]): 4 (weed kill ratio 70% or more, less than 90%) | I (Italian ryegrass) weedkilling efficacy grade (Italian ryegrass [12]): 0 (weed kill ratio 5% or less (practically no effect)) | d (soybean) effect on crop grade (soybean [13]): 3 (weed kill ratio 40% or more, less than 70%) | C (oval-leafed pondweed) weedkilling efficacy grade (oval-leafed pondweed [14]): 5 (weed kill ratio 90% or more, (practically complete withering)) | D (crabgrass) weedkilling efficacy grade (crabgrass [15]): 5 (weed kill ratio 90% or more, (practically complete withering)) | b (directly sown rice) effect on crop grade (directly sown rice [16]): 4 (weed kill ratio 70% or more, less than 90%) | G (wild oat) weedkilling efficacy grade (wild oat [17]): 1 (weed kill ratio 5% or more, less than 20%) | D (crabgrass) weedkilling efficacy grade (crabgrass [18]): 5 (weed kill ratio 90% or more, (practically complete withering)) | f (beet) effect on crop grade (beet [19]): 3 (weed kill ratio 40% or more, less than 70%) | b (directly sown rice) effect on crop grade (directly sown rice [20]): 4 (weed kill ratio 70% or more, less than 90%) | A (barnyard grass) weedkilling efficacy grade (barnyard grass [21]): 5 (weed kill ratio 90% or more, (practically complete withering)) | H (black-grass) weedkilling efficacy grade (black-grass [22]): 5 (weed kill ratio 90% or more, (practically complete withering)) | M (fig-leafed goosefoot) weedkilling efficacy grade (fig-leafed goosefoot [23]): 4 (weed kill ratio 70% or more, less than 90%) | L (redroot pigweed) weedkilling efficacy grade (redroot pigweed [24]): 3 (weed kill ratio 40% or more, less than 70%) | E (green foxtail) weedkilling efficacy grade (green foxtail [25]): 5 (weed kill ratio 90% or more, (practically complete withering)) | d (soybean) effect on crop grade (soybean [26]): 1 (weed kill ratio 5% or more, less than 20%) | C (oval-leafed pondweed) weedkilling efficacy grade (oval-leafed pondweed [27]): 5 (weed kill ratio 90% or more, (practically complete withering)) | e (wheat) effect on crop grade (wheat [28]): 0 (weed kill ratio 5% or less (practically no effect)) | M (fig-leafed goosefoot) weedkilling efficacy grade (fig-leafed goosefoot [29]): 3 (weed kill ratio 40% or more, less than 70%) | E (green foxtail) weedkilling efficacy grade (green foxtail [30]): 5 (weed kill ratio 90% or more, (practically complete withering)) | f (beet) effect on crop grade (beet [31]): 3 (weed kill ratio 40% or more, less than 70%) | I (Italian ryegrass) weedkilling efficacy grade (Italian ryegrass [32]): 4 (weed kill ratio 70% or more, less than 90%) | L (redroot pigweed) weedkilling efficacy grade (redroot pigweed [33]): 4 (weed kill ratio 70% or more, less than 90%) | H (black-grass) weedkilling efficacy grade (black-grass [34]): 3 (weed kill ratio 40% or more, less than 70%) | a (transplanted rice) effect on crop grade (transplanted rice): 0 (weed kill ratio 5% or less (practically no effect)) | P (birds-eye speedwell) weedkilling efficacy grade (birds-eye speedwell): 4 (weed kill ratio 70% or more, less than 90%) | O (catchweed) weedkilling efficacy grade (catchweed [35]): 5 (weed kill ratio 90% or more, (practically complete withering)) | c (corn) effect on crop grade (corn [36]): 3 (weed kill ratio 40% or more, less than 70%)
